Columns and labels:
[1] = target: T1, Alpha-1A adrenergic receptor (Homo sapiens, UniProt P35348); type: functional, cell-based
T1 sequence (P35348 whole entry): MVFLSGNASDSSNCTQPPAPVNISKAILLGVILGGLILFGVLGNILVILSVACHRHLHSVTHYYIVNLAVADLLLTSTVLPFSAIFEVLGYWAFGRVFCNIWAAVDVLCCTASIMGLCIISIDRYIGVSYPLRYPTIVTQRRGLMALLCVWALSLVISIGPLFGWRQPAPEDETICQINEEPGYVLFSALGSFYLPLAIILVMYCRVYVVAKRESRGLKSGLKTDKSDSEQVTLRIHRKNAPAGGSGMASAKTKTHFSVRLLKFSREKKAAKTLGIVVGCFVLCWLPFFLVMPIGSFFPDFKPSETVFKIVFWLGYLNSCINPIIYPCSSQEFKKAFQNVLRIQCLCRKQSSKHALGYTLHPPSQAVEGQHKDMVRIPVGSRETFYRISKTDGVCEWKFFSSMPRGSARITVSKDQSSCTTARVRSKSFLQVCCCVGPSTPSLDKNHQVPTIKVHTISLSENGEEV

[2] = target: Histamine H3 receptor (Homo sapiens, UniProt Q9Y5N1)
Chain of Histamine H3 receptor (Q9Y5N1 whole entry): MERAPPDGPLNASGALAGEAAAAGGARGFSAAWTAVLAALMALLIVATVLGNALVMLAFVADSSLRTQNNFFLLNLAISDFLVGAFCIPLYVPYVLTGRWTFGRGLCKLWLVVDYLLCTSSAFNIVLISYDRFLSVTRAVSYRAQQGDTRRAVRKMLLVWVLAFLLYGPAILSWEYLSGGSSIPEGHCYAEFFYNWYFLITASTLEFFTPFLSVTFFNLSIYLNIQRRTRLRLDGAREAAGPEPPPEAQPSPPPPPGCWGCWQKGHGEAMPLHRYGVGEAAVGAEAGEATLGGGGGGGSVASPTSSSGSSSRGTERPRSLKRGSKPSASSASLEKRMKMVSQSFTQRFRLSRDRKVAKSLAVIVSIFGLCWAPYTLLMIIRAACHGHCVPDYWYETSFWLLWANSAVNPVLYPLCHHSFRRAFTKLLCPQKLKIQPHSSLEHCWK

[3] = target: T2, Progesterone receptor (Homo sapiens, UniProt P06401); type: functional
T2 sequence (P06401 whole entry): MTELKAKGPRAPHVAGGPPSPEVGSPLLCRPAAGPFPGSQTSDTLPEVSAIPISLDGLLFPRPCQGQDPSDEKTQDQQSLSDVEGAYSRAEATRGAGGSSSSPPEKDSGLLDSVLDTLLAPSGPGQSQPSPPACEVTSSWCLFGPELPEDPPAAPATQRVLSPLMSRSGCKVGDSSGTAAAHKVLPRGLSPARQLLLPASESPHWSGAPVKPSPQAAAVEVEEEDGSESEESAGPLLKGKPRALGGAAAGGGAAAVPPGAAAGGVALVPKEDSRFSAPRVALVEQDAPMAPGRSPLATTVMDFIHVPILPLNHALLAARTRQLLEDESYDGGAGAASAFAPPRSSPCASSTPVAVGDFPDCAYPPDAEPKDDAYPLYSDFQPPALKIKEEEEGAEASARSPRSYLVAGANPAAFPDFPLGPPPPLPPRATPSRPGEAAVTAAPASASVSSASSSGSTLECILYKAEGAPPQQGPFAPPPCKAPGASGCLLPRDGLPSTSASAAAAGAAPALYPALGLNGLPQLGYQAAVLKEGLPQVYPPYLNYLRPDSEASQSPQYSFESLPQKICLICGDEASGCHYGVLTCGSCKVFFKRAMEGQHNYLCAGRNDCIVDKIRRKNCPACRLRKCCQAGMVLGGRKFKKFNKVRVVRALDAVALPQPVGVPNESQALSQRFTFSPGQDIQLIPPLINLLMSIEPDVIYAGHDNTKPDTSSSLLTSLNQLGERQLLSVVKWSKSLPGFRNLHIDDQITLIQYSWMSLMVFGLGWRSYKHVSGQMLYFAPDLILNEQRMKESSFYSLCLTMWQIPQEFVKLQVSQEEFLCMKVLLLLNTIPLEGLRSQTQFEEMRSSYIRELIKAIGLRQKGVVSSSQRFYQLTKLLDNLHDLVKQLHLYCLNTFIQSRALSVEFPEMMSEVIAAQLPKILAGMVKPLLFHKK

[4] = target: T3, Mu-type opioid receptor (Homo sapiens, UniProt P35372)
T3 sequence (P35372 whole entry): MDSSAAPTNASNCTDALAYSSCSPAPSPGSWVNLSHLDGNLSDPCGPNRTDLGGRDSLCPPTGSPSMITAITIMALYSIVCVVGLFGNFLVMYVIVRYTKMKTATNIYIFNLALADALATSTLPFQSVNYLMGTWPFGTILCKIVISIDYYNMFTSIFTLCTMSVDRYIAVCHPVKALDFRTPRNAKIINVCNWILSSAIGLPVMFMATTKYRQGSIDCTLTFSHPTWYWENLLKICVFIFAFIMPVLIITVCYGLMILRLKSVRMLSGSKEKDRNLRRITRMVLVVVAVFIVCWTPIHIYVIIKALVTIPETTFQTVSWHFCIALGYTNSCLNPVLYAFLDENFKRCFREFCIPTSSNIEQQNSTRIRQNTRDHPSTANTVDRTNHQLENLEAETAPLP

[5] = target: T4, 5-hydroxytryptamine receptor 2B (Homo sapiens, UniProt P41595); type: functional, cell-based
T4 sequence (P41595 whole entry): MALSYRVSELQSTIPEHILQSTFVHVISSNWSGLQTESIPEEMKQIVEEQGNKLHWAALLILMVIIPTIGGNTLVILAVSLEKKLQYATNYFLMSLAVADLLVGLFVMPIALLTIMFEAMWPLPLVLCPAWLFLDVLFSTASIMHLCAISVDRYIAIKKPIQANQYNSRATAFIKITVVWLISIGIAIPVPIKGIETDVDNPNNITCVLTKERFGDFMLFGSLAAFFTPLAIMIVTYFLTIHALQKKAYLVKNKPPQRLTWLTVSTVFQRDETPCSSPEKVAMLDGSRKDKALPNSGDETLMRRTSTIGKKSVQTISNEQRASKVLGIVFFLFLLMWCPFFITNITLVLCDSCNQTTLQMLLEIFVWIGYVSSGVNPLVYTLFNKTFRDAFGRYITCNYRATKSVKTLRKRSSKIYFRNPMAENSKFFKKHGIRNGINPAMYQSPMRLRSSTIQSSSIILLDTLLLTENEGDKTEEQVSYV

[6] = target: Voltage-dependent L-type calcium channel subunit alpha-1C (Rattus norvegicus, UniProt P22002); type: functional
Chain of Voltage-dependent L-type calcium channel subunit alpha-1C (P22002 whole entry): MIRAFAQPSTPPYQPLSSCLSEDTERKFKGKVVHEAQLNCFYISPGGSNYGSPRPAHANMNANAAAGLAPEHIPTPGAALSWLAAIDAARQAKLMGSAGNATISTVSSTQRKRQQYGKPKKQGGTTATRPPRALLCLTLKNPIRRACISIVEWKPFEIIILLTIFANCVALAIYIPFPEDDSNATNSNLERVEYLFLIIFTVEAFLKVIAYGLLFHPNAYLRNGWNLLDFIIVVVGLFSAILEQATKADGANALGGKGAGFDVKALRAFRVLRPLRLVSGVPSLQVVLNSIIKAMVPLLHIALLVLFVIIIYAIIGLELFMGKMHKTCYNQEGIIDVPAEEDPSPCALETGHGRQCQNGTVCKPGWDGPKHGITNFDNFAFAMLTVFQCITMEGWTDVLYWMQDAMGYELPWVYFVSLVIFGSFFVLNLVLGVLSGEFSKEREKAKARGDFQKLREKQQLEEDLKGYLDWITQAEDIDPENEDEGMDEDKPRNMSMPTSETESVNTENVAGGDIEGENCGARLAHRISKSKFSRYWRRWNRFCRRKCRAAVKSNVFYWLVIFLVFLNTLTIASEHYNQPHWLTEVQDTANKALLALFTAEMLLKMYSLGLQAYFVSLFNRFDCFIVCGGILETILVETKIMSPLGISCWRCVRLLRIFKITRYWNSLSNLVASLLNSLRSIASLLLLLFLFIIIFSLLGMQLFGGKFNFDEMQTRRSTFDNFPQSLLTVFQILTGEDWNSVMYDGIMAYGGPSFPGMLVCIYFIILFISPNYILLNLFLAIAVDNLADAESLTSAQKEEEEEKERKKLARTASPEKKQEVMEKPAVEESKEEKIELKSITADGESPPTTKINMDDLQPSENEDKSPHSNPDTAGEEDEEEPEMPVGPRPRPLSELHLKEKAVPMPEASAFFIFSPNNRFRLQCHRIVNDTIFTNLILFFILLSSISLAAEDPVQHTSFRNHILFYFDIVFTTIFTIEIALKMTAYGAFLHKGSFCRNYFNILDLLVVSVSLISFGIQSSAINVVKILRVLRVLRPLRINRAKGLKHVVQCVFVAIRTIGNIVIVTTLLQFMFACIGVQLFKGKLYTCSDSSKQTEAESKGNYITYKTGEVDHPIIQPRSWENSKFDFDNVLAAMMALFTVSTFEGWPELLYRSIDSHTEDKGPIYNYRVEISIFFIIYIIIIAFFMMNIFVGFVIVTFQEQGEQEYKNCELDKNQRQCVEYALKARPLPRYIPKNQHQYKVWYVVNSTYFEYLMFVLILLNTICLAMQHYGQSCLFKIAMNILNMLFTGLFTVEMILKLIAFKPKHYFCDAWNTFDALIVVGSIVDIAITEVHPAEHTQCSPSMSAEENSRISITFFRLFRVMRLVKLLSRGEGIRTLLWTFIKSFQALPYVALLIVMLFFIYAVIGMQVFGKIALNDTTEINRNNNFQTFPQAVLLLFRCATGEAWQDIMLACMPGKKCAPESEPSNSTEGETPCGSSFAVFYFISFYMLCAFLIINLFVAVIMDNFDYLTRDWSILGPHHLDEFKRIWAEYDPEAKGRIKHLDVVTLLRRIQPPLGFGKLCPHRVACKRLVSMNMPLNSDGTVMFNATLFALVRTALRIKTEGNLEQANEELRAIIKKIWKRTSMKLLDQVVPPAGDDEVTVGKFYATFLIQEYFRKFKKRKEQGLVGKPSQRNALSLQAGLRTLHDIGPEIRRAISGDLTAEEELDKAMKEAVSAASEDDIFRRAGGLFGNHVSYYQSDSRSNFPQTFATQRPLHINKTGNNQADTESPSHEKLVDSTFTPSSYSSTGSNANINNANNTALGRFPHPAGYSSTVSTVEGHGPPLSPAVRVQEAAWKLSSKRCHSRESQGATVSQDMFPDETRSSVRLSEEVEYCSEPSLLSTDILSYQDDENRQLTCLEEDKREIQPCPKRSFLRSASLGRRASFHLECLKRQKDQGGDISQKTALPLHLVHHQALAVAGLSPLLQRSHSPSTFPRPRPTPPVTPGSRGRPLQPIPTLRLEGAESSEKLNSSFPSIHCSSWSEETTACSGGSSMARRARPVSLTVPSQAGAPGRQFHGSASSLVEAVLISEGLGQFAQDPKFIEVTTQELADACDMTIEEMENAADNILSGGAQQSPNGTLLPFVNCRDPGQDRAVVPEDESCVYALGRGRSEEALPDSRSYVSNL

[7] = target: Histamine H2 receptor (Homo sapiens, UniProt P25021); type: functional, cell-based
Chain of Histamine H2 receptor (P25021 whole entry): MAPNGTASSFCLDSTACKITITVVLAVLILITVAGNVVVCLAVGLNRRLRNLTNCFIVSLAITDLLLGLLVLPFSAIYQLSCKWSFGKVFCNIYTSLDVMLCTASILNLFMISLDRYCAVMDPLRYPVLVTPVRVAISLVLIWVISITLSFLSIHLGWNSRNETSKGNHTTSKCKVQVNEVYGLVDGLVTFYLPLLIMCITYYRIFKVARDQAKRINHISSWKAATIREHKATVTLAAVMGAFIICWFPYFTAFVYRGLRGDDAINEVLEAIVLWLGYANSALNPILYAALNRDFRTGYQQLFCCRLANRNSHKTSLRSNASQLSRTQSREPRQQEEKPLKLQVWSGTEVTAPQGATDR

[8] = target: T4, 5-hydroxytryptamine receptor 2B; type: functional, cell-based; remark: listed apart in the source
[9] = target: T5, Thromboxane A2 receptor (Homo sapiens, UniProt P21731); type: functional, cell-based
T5 sequence (P21731 whole entry): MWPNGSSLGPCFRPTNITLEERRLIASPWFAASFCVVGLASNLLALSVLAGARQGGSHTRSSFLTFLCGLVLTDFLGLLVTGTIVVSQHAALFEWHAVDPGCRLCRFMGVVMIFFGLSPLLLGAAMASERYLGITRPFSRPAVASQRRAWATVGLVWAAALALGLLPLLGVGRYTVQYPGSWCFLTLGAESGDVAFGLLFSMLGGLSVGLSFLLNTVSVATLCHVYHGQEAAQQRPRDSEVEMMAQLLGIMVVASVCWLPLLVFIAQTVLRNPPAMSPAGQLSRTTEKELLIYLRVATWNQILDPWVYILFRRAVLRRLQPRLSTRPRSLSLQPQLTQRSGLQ

[10] = target: T3, Mu-type opioid receptor; remark: listed apart in the source
[11] = target: Sodium-dependent noradrenaline transporter (Homo sapiens, UniProt P23975)
Chain of Sodium-dependent noradrenaline transporter (P23975 whole entry): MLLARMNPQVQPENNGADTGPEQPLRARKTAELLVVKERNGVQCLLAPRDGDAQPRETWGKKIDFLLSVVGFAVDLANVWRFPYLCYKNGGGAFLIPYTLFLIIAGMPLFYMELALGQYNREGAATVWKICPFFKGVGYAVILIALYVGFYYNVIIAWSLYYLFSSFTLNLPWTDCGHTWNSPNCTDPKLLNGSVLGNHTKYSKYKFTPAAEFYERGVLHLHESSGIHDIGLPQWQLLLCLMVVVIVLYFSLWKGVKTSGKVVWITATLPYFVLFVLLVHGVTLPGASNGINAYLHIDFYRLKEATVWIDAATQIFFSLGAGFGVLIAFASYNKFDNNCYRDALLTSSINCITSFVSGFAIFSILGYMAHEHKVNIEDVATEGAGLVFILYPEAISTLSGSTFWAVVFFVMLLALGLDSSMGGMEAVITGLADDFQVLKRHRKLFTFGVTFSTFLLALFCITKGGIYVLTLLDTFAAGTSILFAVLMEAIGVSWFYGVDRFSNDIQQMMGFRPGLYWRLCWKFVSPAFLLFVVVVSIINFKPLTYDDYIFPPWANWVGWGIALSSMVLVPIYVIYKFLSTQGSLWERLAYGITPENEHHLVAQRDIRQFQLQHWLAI

[12] = target: T6, Amine oxidase [flavin-containing] A (Homo sapiens, UniProt P21397); type: functional
T6 sequence (P21397 whole entry): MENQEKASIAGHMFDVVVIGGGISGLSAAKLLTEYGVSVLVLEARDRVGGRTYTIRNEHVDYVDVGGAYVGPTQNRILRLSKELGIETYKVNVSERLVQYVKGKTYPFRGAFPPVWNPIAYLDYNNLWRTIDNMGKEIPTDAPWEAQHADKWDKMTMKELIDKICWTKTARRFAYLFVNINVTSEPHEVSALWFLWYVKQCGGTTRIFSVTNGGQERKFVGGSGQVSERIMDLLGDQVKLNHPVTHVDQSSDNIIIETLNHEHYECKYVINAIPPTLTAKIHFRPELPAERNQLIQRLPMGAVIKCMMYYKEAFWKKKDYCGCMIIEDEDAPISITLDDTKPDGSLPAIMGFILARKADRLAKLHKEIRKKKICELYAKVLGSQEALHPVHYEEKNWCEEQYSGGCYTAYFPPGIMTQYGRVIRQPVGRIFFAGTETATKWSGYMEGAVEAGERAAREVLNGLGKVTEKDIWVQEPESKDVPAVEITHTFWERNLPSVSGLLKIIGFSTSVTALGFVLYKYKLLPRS
Further: assay procedure not described here.

| Compound | AC50 [1] | AC50 [2] | AC50 [3] | AC50 [4] | AC50 [5] | AC50 [6] | AC50 [7] | AC50 [8] | AC50 [9] | AC50 [10] | AC50 [11] | AC50 [12] |
| --- | --- | --- | --- | --- | --- | --- | --- | --- | --- | --- | --- | --- |
| CC(=N)N1CC[C@H](SC2=C(C(=O)O)N3C(=O)[C@H]([C@@H](C)O)[C@H]3C2)C1 | > 300 µM | > 300 µM | > 300 µM | > 300 µM | > 300 µM | – | – | – | – | – | – | – |
| CC1(C)S[C@@H]2[C@H](NC(=O)[C@H](N)c3ccc(O)cc3)C(=O)N2[C@H]1C(=O)O [AMOXICILLIN] | > 30 µM | > 30 µM | > 30 µM | > 10 µM | > 30 µM | > 30 µM | > 30 µM | – | – | – | – | – |
| CCc1oc2ccccc2c1C(=O)c1cc(Br)c(O)c(Br)c1 [BENZBROMARONE] | 2.65 µM | > 30 µM | 3.8 µM | 26 µM | > 30 µM | > 10 µM | > 10 µM | – | – | – | – | – |
| [H]/N=C(\N/C(=N/[H])NCCCCCCNC(=N)NC(=N)Nc1ccc(Cl)cc1)Nc1ccc(Cl)cc1 [CHLORHEXIDINE] | 0.6 µM | – | 21.9 µM | 13 µM | > 30 µM | > 10 µM | > 10 µM | – | – | – | – | – |
| C#Cc1cccc(Nc2ncnc3cc(OCCOC)c(OCCOC)cc23)c1 [ERLOTINIB] | > 30 µM | > 30 µM | > 30 µM | 29 µM | > 30 µM | – | – | > 30 µM | > 30 µM | 3.82 µM | > 30 µM | > 30 µM |
| CC1(C)O[C@@H]2C[C@H]3[C@@H]4C[C@H](F)C5=CC(=O)C=C[C@]5(C)[C@H]4[C@@H](O)C[C@]3(C)[C@]2(C(=O)CO)O1 [FLUNISOLIDE] | 0.048 µM | > 30 µM | > 3 µM | > 30 µM | > 30 µM | – | – | – | – | – | – | – |
| C[C@H]1Oc2cc(cnc2N)-c2c(nn(C)c2C#N)CN(C)C(=O)c2ccc(F)cc21 [LORLATINIB] | > 30 µM | > 30 µM | > 30 µM | > 30 µM | > 30 µM | – | – | – | – | – | – | – |
| CC(=O)/N=c1/sc(S(N)(=O)=O)nn1C [METHAZOLAMIDE] | – | – | > 10 µM | > 30 µM | > 10 µM | > 10 µM | > 10 µM | > 30 µM | > 30 µM | > 30 µM | > 30 µM | > 30 µM |
| CC(C)C[C@H](CN)CC(=O)O [PREGABALIN] | – | > 30 µM | > 30 µM | > 30 µM | 28 µM | > 30 µM | > 10 µM | – | – | – | – | – |
| CCOc1cc(CC(=O)N[C@@H](CC(C)C)c2ccccc2N2CCCCC2)ccc1C(=O)O [REPAGLINIDE] | > 30 µM | > 30 µM | > 30 µM | > 30 µM | > 10 µM | – | – | – | – | – | – | – |
| CCCN(CCc1cccs1)[C@H]1CCc2c(O)cccc2C1 [ROTIGOTINE] | – | > 30 µM | > 30 µM | 8.6 µM | 0.43 µM | – | – | – | – | – | – | – |
| CC[C@H]1OC(=O)[C@H](C)[C@@H](O[C@H]2C[C@@](C)(OC)[C@@H](O)[C@H](C)O2)[C@H](C)[C@@H](O[C@@H]2O[C@H](C)C[C@H](N(C)C)[C@H]2O)[C@](C)(O)C[C@@H](C)/C(=N\OCOCCOC)[C@H](C)[C@@H](O)[C@]1(C)O [ROXITHROMYCIN] | > 30 µM | > 30 µM | > 30 µM | > 30 µM | > 30 µM | – | – | – | – | – | – | – |
| CCCCNc1ccc(C(=O)OCCN(C)C)cc1 [TETRACAINE] | > 30 µM | > 10 µM | – | > 10 µM | > 10 µM | > 10 µM | > 10 µM | > 30 µM | > 30 µM | > 30 µM | > 30 µM | 1.41 µM |
| Cn1c(=O)c2[nH]cnc2n(C)c1=O [THEOPHYLLINE] | > 30 µM | > 10 µM | – | > 30 µM | > 10 µM | > 10 µM | > 10 µM | > 30 µM | > 30 µM | > 30 µM | > 30 µM | > 30 µM |

Source: ChEMBL document CHEMBL5291721, “A preclinical secondary pharmacology resource illuminates target-adverse drug reaction associations of marketed drugs” (Nat Commun, 2023)
